For this experiment, the target named is T1, recombinant human-GR (GR) (Homo sapiens, UniProt P04150).
T1 construct: purchased PanVera
T1 sequence (P04150 1-777): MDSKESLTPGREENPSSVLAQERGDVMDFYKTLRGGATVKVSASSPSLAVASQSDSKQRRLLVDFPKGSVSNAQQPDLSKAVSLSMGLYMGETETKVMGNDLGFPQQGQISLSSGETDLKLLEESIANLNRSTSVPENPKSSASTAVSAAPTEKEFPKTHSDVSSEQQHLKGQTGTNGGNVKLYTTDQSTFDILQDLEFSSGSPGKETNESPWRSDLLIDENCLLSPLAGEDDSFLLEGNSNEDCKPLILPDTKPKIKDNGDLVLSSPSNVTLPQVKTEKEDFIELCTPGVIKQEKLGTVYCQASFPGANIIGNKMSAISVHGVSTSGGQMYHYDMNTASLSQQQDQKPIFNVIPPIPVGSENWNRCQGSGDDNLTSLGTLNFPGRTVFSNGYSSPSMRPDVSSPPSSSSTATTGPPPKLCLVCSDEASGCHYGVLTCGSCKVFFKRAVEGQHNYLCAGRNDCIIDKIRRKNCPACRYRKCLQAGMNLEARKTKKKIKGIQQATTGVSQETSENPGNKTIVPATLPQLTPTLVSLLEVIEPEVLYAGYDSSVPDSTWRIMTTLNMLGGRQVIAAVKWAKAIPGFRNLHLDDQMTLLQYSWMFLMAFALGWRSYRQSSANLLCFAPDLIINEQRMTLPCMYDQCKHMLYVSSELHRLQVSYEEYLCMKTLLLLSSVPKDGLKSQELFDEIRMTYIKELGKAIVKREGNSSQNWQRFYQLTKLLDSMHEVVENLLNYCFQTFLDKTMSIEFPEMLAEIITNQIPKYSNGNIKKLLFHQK
Kind of experiment: Glucocorticoid Receptor Competitor Assay kit (PanVera), fluorescence polarisation competition binding. Particulars: fluormone GS1 1 nM, GR 4 nM, 90 minutes at room temperature. The method, then: The affinity of compounds was tested using a Glucocorticoid Receptor Competitor Assay kit (PanVera®). Components of the kit were thawed from −80° C. on ice (Fluormone GS1, recombinant human-GR (GR)) or at room temperature (GR screening buffer, stabilising peptide and DTT). 10 mM test compounds were manually diluted to 20 μM then serially diluted to a final concentration range of 10 μM to 0.1 nM using the BioMek 2000 (Beckman-Coulter) into a black walled 384 welled plate (Matrix technologies). In the following order: fluormone GS1 (1 nM final concentration) is added to all wells excluding the buffer control wells, GR (4 nM final concentration) is added to all wells except minimum and buffer control wells, cortisol (10 μM final concentration) is added to fluormone GS1 control wells only, buffer is added to all wells to a final volume of 40 μl. The plate is covered and incubated at room temperature with agitation for 90 minutes. Readings were taken using the Analyst (LJL) in fluorescence polarisation reading mode. The MilliP ratio is calculated from cps readings obtained in parallel and perpendicular mode. The percent effect of the bound ligand is calculated at each concentration and the dose response curves plotted allowing the EC50 to be calculated. […]
(In general: Fluorescence polarisation rises when a labelled molecule tumbles more slowly, as on binding a larger partner.)

As for `CC#C[C@]1(O)CC[C@H]2[C@@H]3CCC4=CC(=O)CCC4=C3[C@@H](c3ccc4c(c3)OCO4)C[C@@]21C` [(11beta, 17beta)-11-(1,3-benzodioxol-5-yl)-17-hydroxy-17-(1-propynyl)estra-4,9-dien-3-one], the EC50 (commonly the concentration at which the effect is half-maximal) was determined as 10 nM.

Values taken from patent US7960365B2, “Compounds with medicinal effects due to interaction with the glucocorticoid receptor” (N.V. Organon, priority 2006, dated 2011).
